Counter-ions that a name gives are not always drawn.
Assays:
[1] = system: human hepatic cancer cell line (HuH-7); experiment: Growth inhibition of HuH-7 cells, sulforhodamine B method; assay type: cell-based; conditions: 5 days with test compound
Method: (§1) Growth inhibition of a human breast cancer cell line (MDA-MB-468) was determined by the sulforhodamine B method based on the method of Skehan P. et al. (J Natl Cancer Inst. 1990 Jul. 4; 82(13): 1107-12). In the study, MDA-MB-468 cells were seeded on DMEM medium containing 10% fetal bovine serum in a 96-well microplate. After 24-h incubation at 37° C. in the presence of 5% carbon dioxide, the test compound was added and the cells were incubated for another 5 days. After incubation, a trichloroacetic acid solution was added to yield the final concentration of 10% and the cells were left to stand at 4° C. for 1 hour to fix. Then, the cells were washed with water to remove the medium and trichloroacetic acid and dried in the air. The dried cells were stored at 4° C. until they were stained with sulforhodamine B. To each well, 1% acetic acid solution containing 0.4% sulforhodamine B was added and left to stand for 20 to 30 minutes at room temperature. After discarding the supernatant, each well was washed with 1% acetic acid solution, and 10 mM Tris([…]) solution was added while stirring to elute the dye taken into the cells. Then, the optical density was determined at the measurement wavelength of 492 nm and the reference wavelength of 690 nm, and the difference was calculated. The cell growth activity in each well was defined as the value determined by subtracting the OD in the control well not containing cells (the difference in absorbance between 492 nm and 690 nm) from that in the test well.
(§2) The 50% inhibitory concentration (IC50 (nM)) of the test compound was determined by comparing the cell growth activity in the well containing the test compound with that of the control not containing the test compound.
The growth inhibition on a human hepatic cancer cell line (HuH-7) was also determined by the above method.

[2] = system: human breast cancer cell line (MDA-MB-468); experiment: Growth inhibition of MDA-MB-468 cells, sulforhodamine B method; assay type: cell-based; conditions: 120 h, 5 days with test compound
Method: as §1, §2

| IC50 ([1]; Homo sapiens, 120 h) [µM] | IC50 [1] [µM] | melting point [°C] | IC50 [2] [µM] | SMILES |
| --- | --- | --- | --- | --- |
| < 0.01 | – | – | – | CCOc1ccc(OCCOc2ccc(CN3CCN(C(=O)/C=C/c4cc(C)c(Oc5ccc(OCc6ccc(C)cc6)cn5)c(Cl)c4)CC3)cc2)cc1 [Example 315, (E)-3-[3-Chloro-5-methyl-4-({5-[(4-methylbenzyl)oxy]pyridin-2-yl}oxy)phenyl]-1-(4-{4-[2-(4-ethoxyphenoxy)ethoxy]benzyl}piperazin-1-yl)prop-2-en-1-one] |
| < 0.01 | – | – | – | Cc1ccc(CN2CCN(C(=O)/C=C/c3cc(C)c(Oc4ccc(OCc5ccc(C(C)C)cc5)cn4)c(Cl)c3)CC2)cc1 [Example 358, (E)-3-{3-Chloro-5-methyl-4-[(5-{[4-(propan-2-yl)benzyl]oxy}pyridin-2-yl)oxy]phenyl}-1-[4-(4-methylbenzyl)piperazin-1-yl]prop-2-en-1-one] |
| < 0.01 | – | – | – | Cc1cc(/C=C/C(=O)N2CCN(Cc3ccc(CCOCc4ccc(Cl)cc4)cc3)CC2)cc(C)c1Oc1ccc(OCc2ccncc2)cn1 [Example 384, (E)-1-[4-(4-{2-[(4-chlorobenzyl)oxy]ethyl}benzyl)piperazin-1-yl]-3-(3,5-dimethyl-4-{[5-(pyridin-4-ylmethoxy)pyridin-2-yl]oxy}phenyl)prop-2-en-1-one] |
| < 0.01 | – | – | – | C=Cc1ccc(CN2CCN(C(=O)/C=C/c3cc(C)c(Oc4ccc(OCc5ccccc5Cl)cn4)c(Cl)c3)CC2)cc1 [Example 391, (E)-3-[3-chloro-4-({5-[(2-chlorobenzyl)oxy]pyridin-2-yl}oxy)-5-methylphenyl]-1-[4-(4-ethenylbenzyl)-piperazin-1-yl]prop-2-en-1-one] |
| < 0.01 | – | – | – | COc1ccc(OCCc2ccc(CN3CCN(C(=O)/C=C/c4cc(C)c(Oc5ccc(OCc6ccc(C#N)cc6)cn5)c(C)c4)CCO3)cc2)cc1 [Example 402, 4-{[(6-{4-[(E)-3-(2-{4-[2-(4-Methoxyphenoxy)ethyl]benzyl}-1,2,5-oxadiazepan-5-yl)-3-oxoprop-1-en-1-yl]-2,6-dimethylphenoxy}pyridin-3-yl)oxy]methyl}benzonitrile] |
| < 0.01 | – | – | – | Cc1ccc(OC/C=C/c2ccc(CN3CCN(C(=O)/C=C/c4cc(C)c(Oc5ccc(OCc6ccc(F)cc6)cn5)c(C)c4)CC3)cc2C)cc1 [Example 407, (2E)-3-[4-({5-[(4-fluorobenzyl)oxy]pyridin-2-yl}oxy)-3,5-dimethylphenyl]-1-(4-{3-methyl-4-[(1E)-3-(4-methylphenoxy)prop-1-en-1-yl]benzyl}piperazin-1-yl)prop-2-en-1-one] |
| – | < 0.01 | – | – | COc1ccc(OCCc2ccc(CN3CCN(C(=O)/C=C/c4cc(C)c(Oc5ccc(OCc6ccc(C)c(F)c6)cn5)c(Cl)c4)CC3)cc2)cc1 [Example 428, (E)-3-[3-Chloro-4-({5-[3-fluoro-4-methylbenzyl)oxy]pyridin-2-yl}oxy)-5-methylphenyl]-1-(4-{4-[2-(4-methoxyphenoxy)ethyl]benzyl}piperazin-1-yl)prop-2-en-1-one hydrochloride] |
| < 0.01 | – | 214.8 to 215.3 | – | Cc1cc(/C=C/C(=O)N2CCN(Cc3ccc(CCOc4ccc(C(C)C)cc4)cc3)CC2)cc(Cl)c1Oc1ccc(OCc2ccc(Cl)nc2)cn1.Cl [Example 443, (E)-3-[3-Chloro-4-({5-[(6-chloropyridin-3-yl)methoxy]pyridin-2-yl}oxy)-5-methylphenyl]-1-[4-(4-{2-[4-(propan-2-yl)phenoxy]ethyl}benzyl)piperazin-1-yl]prop-2-en-1-one hydrochloride] |
| < 0.01 | – | 166.4 to 167.7 | – | Cc1cc(/C=C/C(=O)N2CCN(Cc3ccc(CCOc4ccc(C(C)C)cc4)cc3)CC2)cc(Cl)c1Oc1ccc(OCc2cccnc2)cn1.Cl [Example 445, (E)-3-(3-Chloro-5-methyl-4-{[5-(pyridin-3-ylmethoxy)pyridin-2-yl]oxy}phenyl)-1-[4-(4-{2-[4-(propan-2-yl)phenoxy]ethyl}benzyl)piperazin-1-yl]prop-2-en-1-one hydrochloride] |
| < 0.01 | – | 211.9 to 214 | – | Cc1cc(/C=C/C(=O)N2CCN(Cc3ccc(CCOc4ccc(F)cc4)cc3)CC2)cc(Cl)c1Oc1ccc(OCc2ccccc2Cl)cn1.Cl [Example 449, (E)-3-[3-Chloro-4-({5-[(2-chlorobenzyl)oxy]pyridin-2-yl}oxy)-5-methylphenyl]-1-(4-{4-[2-(4-fluorophenoxy)ethyl]benzyl}piperazin-1-yl)prop-2-en-1-one hydrochloride] |
| < 0.01 | – | – | – | CC(C)c1ccc(OCCc2ccc(CN3CCN(C(=O)c4ccc5cc(Oc6ccc(OCc7cccc(F)c7F)cn6)ccc5c4)CC3)cc2)cc1 [Example 542, [6-({5-[(2,3-Difluorobenzyl)oxy]pyridin-2-yl}oxy)naphthalen-2-yl][4-(4-{2-[4-(propan-2-yl)phenoxy]ethyl}benzyl)piperazin-1-yl]methanone hydrochloride] |
| – | – | 141.8 to 141.9 | < 0.01 | Cc1cc(/C=C/C(=O)N2CCN(Cc3ccc(COc4ccc(OC(C)C)cc4)c(F)c3)CC2)cc(Cl)c1Oc1ccc(OCc2ccc(C#N)cc2)cn1.Cl [Example 640, 4-({[6-(2-Chloro-4-{(E)-3-[4-(3-fluoro-4-{[4-(propan-2-yloxy)phenoxy]methyl}benzyl)-piperazin-1-yl]-3-oxoprop-1-en-1-yl}-6-methylphenoxy)pyridin-3-yl]oxy}methyl)benzonitrile hydrochloride] |
| – | – | 218 to 220.5 | < 0.01 | Cc1cc(/C=C/C(=O)N2CCN(Cc3ccc(COc4ccc(F)cc4)c(F)c3)CC2)cc(Cl)c1Oc1ccc(OCc2ccc(C#N)cc2)cn1.Cl [Example 641, 4-{[(6-{2-Chloro-4-[(E)-3-(4-{3-fluoro-4-[(4-fluorophenoxy)methyl]benzyl}piperazin-1-yl)-3-oxoprop-1-en-1-yl]-6-methylphenoxy}pyridin-3-yl)oxy]methyl}benzonitrile hydrochloride] |
| < 0.01 | – | – | – | COc1ccc(CCOc2ccc(CN3CCN(C(=O)/C=C/c4cc(C)c(Oc5ccc(OCc6ccc(C(F)(F)F)cc6)cn5)c(Cl)c4)CC3)cc2)cc1 [Example 688, (E)-3-{3-Chloro-5-methyl-4-[(5-{[4-(trifluoromethyl)benzyl]oxy}pyridin-2-yl)oxy]phenyl}-1-(4-{4-[2-(4-methoxyphenyl)ethoxy]benzyl}piperazin-1-yl)prop-2-en-1-one hydrochloride] |
| – | – | 205.5 to 206.5 | < 0.01 | Br.C/C(C(=O)N1CCN(Cc2ccc(CCOc3ccc(C)cc3)cc2)CC1)=C(/C)c1cc(C)c(Oc2ccc(OCc3ccc(C)cc3)cn2)c(Cl)c1 [Example 706, (E)-3-[3-Chloro-5-methyl-4-({5-[(4-methylbenzyl)oxy]pyridin-2-yl}oxy)phenyl]-2-methyl-1-(4-{4-[2-(4-methylphenoxy)ethyl]benzyl}piperazin-1-yl)but-2-en-1-one hydrobromide] |
| – | – | 156.5 to 158.2 | < 0.01 | Br.C/C(=C\C(=O)N1CCN(Cc2ccc(CCOc3ccc(C)cc3)cc2)CC1)c1cc(C)c(Oc2ccc(OCc3ccc(C)cc3)cn2)c(Cl)c1 [Example 708, (E)-3-[3-Chloro-5-methyl-4-({5-[(4-methylbenzyl)oxy]pyridin-2-yl}oxy)phenyl]-1-(4-{4-[2-(4-methylphenoxy)ethyl]benzyl}piperazin-1-yl)but-2-en-1-one hydrobromide] |
| – | – | 211.3 to 211.7 | < 0.01 | C/C(=C\C(=O)N1CCN(Cc2ccc(CCOc3ccc(F)cc3)cc2)CC1)c1cc(C)c(Oc2ccc(OCc3ccc(C)cc3)cn2)c(Cl)c1.O=C(O)C(=O)O [Example 746, (E)-3-[3-Chloro-5-methyl-4-({5-[(4-methylbenzyl)oxy]pyridin-2-yl}oxy)phenyl]-1-(4-{4-[2-(4-fluorophenoxy)ethyl]benzyl}piperazin-1-yl)but-2-en-1-one ethanedioate] |
| – | – | 220 to 220.9 | < 0.01 | Cc1cc(/C=C/C(=O)N2CCN(Cc3ccc(Cl)cc3)CC2)cc(Cl)c1Oc1ccc(OCCc2ccc(Cl)cc2)cn1.Cl [Example 765, (E)-1-[4-(4-Chlorobenzyl)piperazin-1-yl]-3-[3-chloro-4-({5-[2-(4-chlorophenyl)ethoxy]pyridin-2-yl}oxy)-5-methylphenyl]prop-2-en-1-one hydrochloride] |
| – | – | 223.9 to 224.5 | < 0.01 | Cc1ccc(CN2CCN(C(=O)/C=C/c3cc(C)c(Oc4ccc(OCc5ccc(F)cc5)cn4)c(Cl)c3)CC2)cc1.Cl [Example 779, (E)-3-[3-Chloro-4-({5-[(4-fluorobenzyl)oxy]pyridin-2-yl}oxy)-5-methylphenyl]-1-[4-(4-methylbenzyl)piperazin-1-yl]prop-2-en-1-one hydrochloride] |
| – | – | 223.1 to 224 | < 0.01 | Cc1ccc(CN2CCN(C(=O)/C=C/c3cc(C)c(Oc4ccc(OCc5ccc(Cl)cc5)cn4)c(Cl)c3)CC2)cc1.Cl [Example 781, (E)-3-[3-Chloro-4-({5-[(4-chlorobenzyl)oxy]pyridin-2-yl}oxy)-5-methylphenyl]-1-[4-(4-methylbenzyl)piperazin-1-yl]prop-2-en-1-one hydrochloride] |

— US8722663B2, “Di-substituted pyridine derivatives as anticancers” (Otsuka Pharmaceutical Co., Ltd., priority 2010, dated 2014)
